Earlier results as cited in patent US12534749B2, “Monoacylated MEL-producing microorganism” (NATIONAL INSTITUTE OF ADVANCED INDUSTRIAL SCIENCE AND …, priority 2019, dated 2026).

Conditions: known value, T. Fukuoka et al., Carbohydrate Research 351 (2012) 81-86

In the case of diacylated MEL-B, the CMC is given as 3.1 µM.
